Assay results taken from the supplement of paper PMC10290057.
Counter-ions that a name gives are not always drawn.

Tested on: HCT116
Assay: efficacy (fitted maximal change in viability relative to DMSO control); higher = less cytotoxic (negative = loss of viability)
Settings: 48 h
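Note: Luminescence-based viability readout, five doses per compound, normalized against on-plate DMSO and empty-well controls, followed by dose-response curve fitting for every drug.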

NC/1=N/C(=O)N(C[C@@H](CO)OC[P](O)(O)=O)/C=C1 [Cidofovir]
efficacy: 7.03%

CC(C)Oc1ccc(-c2nc(-c3cccc4c3CC[C@@H]4NCCO)no2)cc1C#N [Ozanimod]
efficacy: -31.3%

Cc1csc(NC(=O)c2sc3nc4c(c(C(F)(F)F)c3c2N)CCC4)n1 [Irestatin 9389]
efficacy: -42%

NC(=O)c1ncn([C@@H]2O[C@H](CO)[C@@H](O)[C@H]2O)c1N [Acadesine]
efficacy: 7.93%

O=C1NC(=O)/C(=C/c2ccc3c(c2)OC(F)(F)O3)S1
efficacy: -22.5%

N[C@@H]1C[C@H]1c1ccccc1 [Tranylcypromine]
efficacy: -9.58%

c1ccc2c(Cc3c[nH]c4ccccc34)c[nH]c2c1 [Diindolylmethane]
efficacy: -49.5%

CN1\C(=C([O-])/C2=CC=CC=C2[S+]1([O-])=O)C(=O)NC3=NC=C(C)S3 [MELOXICAM SODIUM]
efficacy: 9%

CN(C)CCN(C)CCc1ccc(Cl)c(Cl)c1 [BD-1047]
efficacy: -29.2%

C=CC(=O)N[C@H]1CN(c2nc(Nc3cn(C)nc3OC)c3ncn(C)c3n2)C[C@@H]1F
efficacy: -68%

Cc1c(C)n(Cc2ccc(-c3ccccc3C(=O)O)cc2)c2ccc(C(=O)N[C@@H](C)c3ccc([N+](=O)[O-])cc3)cc12 [SR-1664]
efficacy: 14.2%

CC1=C(C=CC=C1)N2\C(=N/C3=C(C(=CC=C3)C)C2=O)C[N]4N=CC5=C4N=CN=C5N [PIK-293]
efficacy: -6.78%

CNNCc1ccc(C(=O)NC(C)C)cc1 [Procarbazine hydrochloride]
efficacy: -10.4%

Cc1ccccc1C(C(=O)NC1CCCCC1)N(C(=O)CNc1ccc(C#N)cc1)c1cccc(F)c1 (configuration not stated) [IDH-C227]
efficacy: -56.1%

ClC1=CC=C2N/C3=N/C(=O)CN3CC2=C1Cl [Anagrelide]
efficacy: -14.6%

COc1ccc(CCN2CCN(CCCc3ccccc3)CC2)cc1OC [Cutamesine hydrochloride]
efficacy: -28.5%

CC(C[N+](C)(C)C)OC(N)=O (configuration not stated) [Bethanechol chloride]
efficacy: -25.8%

OC[C@@H](O)[C@@H](O)[C@H](O)[C@@H](O)CO [Mannitol]
efficacy: 13%

CC1C\2C(O)C3C(N(C)C)C(=O)\C(=C(O)/C3(O)C(=O)C2=C(O)/C4=C1C=CC=C4O)C(N)=O (configuration not stated) [Doxycycline]
efficacy: -26.7%

CCCC1=NC(=C2[N]1NC(=N\C2=O)/C3=CC(=CC=C3OCC)[S+]([O-])(=O)N4CCN(CC)CC4)C [Vardenafil]
efficacy: -19.1%

CC1(C)O[C@@H]2C[C@H]3[C@@H]4C[C@H](F)\C5=C\C(=O)\C=C/[C@]5(C)[C@H]4[C@@H](O)C[C@]3(C)[C@@]2(O1)C(=O)CO [FLUNISOLIDE]
efficacy: -18.4%

CN[C@@H](C)C(=O)N[C@H](C(=O)N1CCC[C@H]1C(=O)Nc1sc(-c2ncco2)nc1-c1ccccc1)C1CCCCC1 [CUDC-427]
efficacy: -17%

O=S(=O)([O-])CCS [Mesna]
efficacy: -8.13%

Oc1cc2c(cc1O)C1c3ccc(O)c(O)c3OCC1(O)C2 (configuration not stated) [Hematoxylin]
efficacy: -9.9%

Cc1ccsc1C(=CCCN1CCC[C@@H](C(=O)O)C1)c1sccc1C [Tiagabine hydrochloride]
efficacy: -8.94%

CCC[S+](=O)([O-])Nc1ccc(F)c(C(=O)c2c[nH]c3ncc(-c4ccc(Cl)cc4)cc23)c1F [Vemurafenib]
efficacy: 9.66%

COC[C@@H](c1ccc(C(F)(F)F)cc1)N1CCN(C2(C)CCN(C(=O)c3c(C)ncnc3C)CC2)C[C@@H]1C
efficacy: -15.4%

CC(C)c1cccc(C(C)C)c1O [Propofol]
efficacy: -8.33%

Cc1cc(Oc2ccc3nc(COc4ccc(CC5SC(=O)NC5=O)cc4)n(C)c3c2)cc(C)c1N (configuration not stated) [Efatutazone]
efficacy: -24.7%

NC(=O)c1cccc(N)c1
efficacy: -10.2%

COc1ccc(COc2cc3oc(=O)c4cc(C(C)O)ccc4c3cc2OC)cc1 (configuration not stated)
efficacy: -22%

O=C(CBr)N1CC([N+](=O)[O-])([N+](=O)[O-])C1 [RRx-001]
efficacy: -23.7%

CC(C)OC(=O)/C1=C/N(CC(C)(C)C2=C1[NH]C3=CC=CC=C23)C(=O)C4=CC=C(F)C(=C4)F [Turofexorate isopropyl]
efficacy: -17.9%

CCOC(=O)[C@H](CCc1ccccc1)N[C@@H](C)C(=O)N1CCC[C@H]1C(=O)O [Enalapril maleate]
efficacy: -15.7%

COc1ccccc1C(=O)Nc1cc2c(cc1N1CCCC1)n(C)c(=O)n2C [PFI-4]
efficacy: -64%

CC[C@H](NC1=C2[NH]C=NC2=NC=N1)/C3=C(/C(=O)C4=CC=CC=C4O3)C5=CC=CC(=C5)F [Tenalisib]
efficacy: -39.1%

O=C(O)CCCc1c[nH]c2ccccc12 [3-indolebutyric acid]
efficacy: 15%

CN(C)C(=O)[C@H](O)[C@H](Cc1ccccc1)NC(=O)c1cc2cc(Cl)ccc2[nH]1
efficacy: -14.2%

CC1=CC(=CC(=C1C\C2=N\CCN2)C)C(C)(C)C [Xylometazoline hydrochloride]
efficacy: -32.9%

C=C[C@H]1CN2CCC1C[C@@H]2C(O)c1ccnc2ccc(OC)cc12 (some centres not stated) [Quinidine]
efficacy: -25.6%

NC[C@H]1O[C@H](O[C@H]2[C@H](O)[C@@H](O[C@H]3O[C@H](CO)[C@@H](O)[C@H](N)[C@H]3O)[C@H](N)C[C@@H]2N)[C@H](N)C[C@@H]1O [Tobramycin]
efficacy: -8.81%

COc1ccc2cccc(CCNC(C)=O)c2c1 [Agomelatine]
efficacy: -12.5%

CN[C@@H](C)C(=O)N[C@@H]1C(=O)N(Cc2c(C)ccc3ccccc23)c2ccc(C#N)cc2N(C(C)=O)[C@H]1C [Compound 36]
efficacy: -26%

O=C1CC[C@H](N2Cc3c(OCc4ccc(CN5CCOCC5)cc4)cccc3C2=O)C(=O)N1 [Iberdomide]
efficacy: -18.8%

c1cc(CN2CCCNCCNCCCNCC2)ccc1CN1CCCNCCNCCCNCC1 [Plerixafor hydrochloride]
efficacy: -8.04%

CC(c1cc2ccccc2s1)N(O)C(N)=O (configuration not stated) [Zileuton]
efficacy: -26.8%

CC(=O)Nc1ccc(O)cc1 [Acetaminophen]
efficacy: 8.22%

O=C(Nc1c(Cl)cncc1Cl)c1ccc(OC(F)F)c(OCC2CC2)c1 [Roflumilast]
efficacy: -20.6%

CCCCOc1ccc(CC(=O)NO)cc1 [Bufexamac]
efficacy: -14.9%

C/C(=C\C(=O)Nc1ccccc1C(=O)O)c1ccc2ccccc2c1 [BIBR-1532]
efficacy: -69.1%

O=C1NC(=O)/C(=C/c2ccc3nccnc3c2)S1
efficacy: -27.3%

OC1=CC=C2\C3=C(CNCC3)/C(=O)OC2=C1C4OCCCO4 [BI09]
efficacy: 9.24%

CN1C(=O)C(=C\C2=C1N=C(NC3=CC=CC(=C3)C(O)=O)N=C2)/C4=C(Cl)C=CC=C4Cl
efficacy: -10.3%

CCC(C)(C)c1ccc(CC(C)CN2C[C@@H](C)O[C@@H](C)C2)cc1 (some centres not stated) [Amorolfine hydrochloride]
efficacy: -10%

CCC(C)C(N)\C1=N\C(CS1)C(=O)N[C@@H](CC(C)C)C(=O)N[C@H](CCC(O)=O)C(=O)N[C@@H]([C@@H](C)CC)C(=O)N[C@H]2CCCCNC(=O)[C@H](CC(N)=O)NC(=O)[C@@H](CC(O)=O)NC(=O)[C@H](CC3=CN=C[NH]3)NC(=O)[C@@H](CC4=CC=CC=C4)NC(=O)[C@@H](NC(=O)[C@@H](CCCN)NC2=O)[C@@H](C)CC (some centres not stated) [Bacitracin (Zinc)]
efficacy: -26.9%

CC(C)(O)c1coc([S+](=O)([O-])NC(=O)Nc2c3c(cc4c2CCC4)CCC3)c1
efficacy: 7.83%

COc1ccc2c(c[n+](C)c3c4cc5c(cc4ccc23)OCO5)c1OC [Chelerythrine chloride]
efficacy: -83.2%

NC12CC3CC(CC(C3)C1)C2 [Amantadine hydrochloride]
efficacy: -15.1%

CC(C(=O)O)c1ccc2c(c1)CC(=O)c1ccccc1S2 (configuration not stated) [Zaltoprofen]
efficacy: 8.02%

N#Cc1ccnc(N2C(=O)CC[C@H]2C(=O)N(c2cncc(F)c2)[C@H](C(=O)NC2CC(F)(F)C2)c2ccccc2Cl)c1 [Ivosidenib]
efficacy: -25.4%

Cc1cc(-c2ccc(CC(=O)Nc3ccc(-c4cccnc4)cc3)cc2)ccn1 [Wnt-C59]
efficacy: -33.8%

Cl.NC(CO)C(=O)NNCc1ccc(O)c(O)c1O (configuration not stated) [Benserazide]
efficacy: -65.3%

C[S+](=O)([O-])c1ccc(Oc2cc(F)cc(C#N)c2)c2c1[C@H](O)C(F)(F)C2 [PT-2385]
efficacy: -10.6%

CCCCC[C@H](O)/C=C/[C@H]1[C@H](O)CC(=O)[C@@H]1CCCCCCC(=O)O [Alprostadil]
efficacy: -12.3%

Nc1cc(c(cc1S(=O)(N)=O)S(N)(=O)=O)C(/Cl)=C(/Cl)Cl [Clorsulon]
efficacy: -7.71%

CC(C)=CC[C@@H](O)C/1=C/C(=O)C2=C(O)C=CC(=C2C1=O)O [Shikonin]
efficacy: -13.1%

N#CN1CCC[C@@H](n2nc(-c3ccc(Oc4ccc(F)cc4F)cc3)c(C(N)=O)c2N)C1
efficacy: -38.1%

C[C@]\12CC[C@H](O)CC1=C/C[C@@H]3[C@@H]2CC[C@@]\4(C)[C@H]3C\C=C4C5=CN=CC=C5 [Abiraterone]
efficacy: 7.6%

OC[C@H]1O[C@@H](O[C@@H]2[C@@H](CO)OC(O)(CO)[C@H]2O)[C@H](O)[C@@H](O)[C@H]1O (mixture of isomers) [Lactulose]
efficacy: 9%

O=C(O)C(=O)Nc1cccc(-c2nnn[nH]2)c1 [Acitazanolast]
efficacy: 17%

COc1ccccc1C(=O)Nc1cc2c(cc1N1CCCCC1)n(C)c(=O)n2C [GSK-5959]
efficacy: -9.01%

N#Cc1ccc(C(c2ccc(C#N)cc2)n2cncn2)cc1 [Letrozole]
efficacy: -10.3%

CC1=C(CC(=O)O)c2cc(F)ccc2/C1=C\c1ccc([S+](C)[O-])cc1 (configuration not stated) [Sulindac]
efficacy: -20.4%

CC[C@H](NC(=O)[C@H](C[S+](=O)([O-])CC1CC1)N[C@@H](c1ccc(F)cc1)C(F)(F)F)C(=O)C(=O)NC1CC1 [VBY-825]
efficacy: -25.3%

COC1=CC2=C(C=C1CC3=C(F)C(=CC=C3)Cl)C(=O)\C(=C/N2[C@H](CO)C(C)C)C(O)=O [Elvitegravir]
efficacy: -72.2%

CCCC[C@@H](C=O)NC(=O)[C@H](CC(C)C)NC(=O)OCc1ccccc1 [Calpeptin]
efficacy: -29.4%

O=C1N(c2ccccc2)c2ccccc2C1(Cc1ccncc1)Cc1ccncc1 [Linopirdine]
efficacy: -12.1%
